Assay results published in patent US20160166637A1, “METHODS OF TREATING A CANCER THROUGH TARGETED DISRUPTION OF ALPHA CONNEXIN 43-ZONULA OCCLUDENS-1 (ZO-1) INTERACTION” (Virginia Tech Intellectual Properties, Inc., priority 2013, published 2016).
Blank lines part the entries; values can stand above or below the compound they belong to.

What was measured:
[1] = phase I, brain cancer patients; cited from earlier work
[2] = in vivo; cited from earlier work
GS9-6 cells = assay: Viability of glioma stem cell line; format: cell-based, human; settings: alone or in combination
Description: FIG. 13 is a graph showing the effects of ACT-1 treatment at concentrations from 30 to 120 μM on the viability of the glial stem cell (GSC) line GS9-6 with or without temozolomide.
The ACT-1 peptide was tested on a glioma stem cell (GSC) line alone or in combination with temozolomide (TMZ).

[3] = test system: C6 cells stably expressing Cx43; assay: Boyden chamber motility assay (Example 4, serum-free pre-treatment); format: cell-based; settings: both concentrations of ACT-1 (1 μM, 25 μM); 24 hours serum-free pre-treatment, 4 hours
Description: FIGS. 10A-10C are images of a motility experiment using C6 cells stably expressing Cx43 showing no treatment (FIG. 10A), 25 μM reverse sequence peptide (control peptide) (FIG. 10B) and 25 μM ACT-1 (FIG. 10C).
FIG. 10D is a graph showing the results of the motility experiment using C6 cells stably expressing Cx43 showing no treatment, 1 μM ACT-1, 25 μM ACT-1, 1 μM reverse sequence peptide (control peptide), and 25 μM reverse sequence peptide (control peptide).
(§1) In this example, peptides were added after cells were incubated in serum-free media, then 24 hours of pre-treatment was allowed in the serum-free conditions, and finally the cells were transferred, without typsinizing, to Boyden chamber and incubated for 4 hours. […] With this example, the results of the C6 cells seemed to be similar to wt-C6 cells.

U87 glioma cells = assay: Boyden chamber motility assay (Example 3); format: cell-based, human; settings: overnight pre-treatment in 10% serum, 4 hour incubation; vs no treatment and control peptide
Description: After an overnight peptide pre-treatment in 10% serum, two glioma cell lines, c6 and U87, were seeded in serum-free media containing peptides into Boyden chamber transwell inserts with 8 μm pores in the membrane and then filled the bottom wells with media containing 10% FBS as a chemoattractant. […] Then the migrated cells were fixed, stained with Hoescht dye, and imaged on an epifluorescence microscope.

wild-type C6 cells = assay: Boyden chamber motility assay (Example 4) on wild-type cells; format: cell-based; settings: both concentrations of ACT-1 (1 μM, 25 μM)
Description: as §1
The same situation was true when the same experiment was performed on wild-type C6 cells.

GS9-6 glioma stem cells = assay: Sphere/colony formation assay (self-renewal); format: cell-based, human; settings: FIG. 15
Text: To further investigate the effect of ACT-1 on glioma stem cells, the present inventors measured the capacity of glioma stem cells to self-renew. The unique feature that makes glioma stem cells different from other glioma cells is that glioma stem cells are able to copy themselves (termed as self-renewal). The well-established approach to measure self-renewal of stem cells is sphere/colony formation assay. The self-renewal of GS9-6 glioma stem cells treated with ACT-1 was then monitored. […] Two different doses of ACT-1 and TMZ were tested. Both treatments inhibited the self-renewal of GS9-6 (FIGS. 16 and 17). Thus, the data strongly indicate that ACT-1 sensitizes glioblastoma cells to TMZ.

LN229/GSCs = assay: Glioma xenograft mouse model, tumor growth; format: in vivo, mice; settings: 200 μM/tumor ACT-1, 100 mg/kg TMZ
Text: To further validate the therapeutic effect of ACT-1 in vivo, tumor growth was monitored using a glioma xenograft mouse model. As GS9-6 cells grow slowly in mice, the present inventors elected to use LN229/GSCs, isolated from LN229 human GBM cell line. […] LN229/GSCs were first injected into the flanks of immunocompromised mice and tumors (more than 100 mm3) were detected in all mice in 14 days. By contrast, GS9-6 cells form a tumor in 6 months (data not shown). Treatments at day 14 were then started. First, 100 mg/kg ACT-1 was injected subcutaneously. 24 hours later, mice were treated with 7.5 mg/kg TMZ (dissolved in DMSO) or vehicle DMSO intraperitoneally. Such treatment regime was repeated three times a week for three weeks, and tumor growth was monitored for another week. […] Taken together, these examples provide a firm support for potential clinical application of ACT-1 in treating human or canine glioblastoma patients.
FIG. 21 is a plot of tumor volume over 53 days for untreated, 200 μM/tumor ACT-1, 100 mg/kg TMZ treated, and combinatorial 200 μM/tumor ACT-1 and 100 mg/kg TMZ treated mice. FIG. 22 is a graph of tumor volumes at 53 days and FIG. 23 is an image of tumor volumes at 53 days for these treatments.

Cx43 CT = target: T1, Cx43 CT (Homo sapiens, UniProt P17302); assay: EDAC cross-linking of ACT-1 and Cx43 carboxy terminal peptide (polyacrylamide gel); format: binding
T1 construct: EDAC cross-linking reaction of ACT-1 and connectin 43 carboxy terminal peptide
T1 sequence (P17302 229-382 limits assumed): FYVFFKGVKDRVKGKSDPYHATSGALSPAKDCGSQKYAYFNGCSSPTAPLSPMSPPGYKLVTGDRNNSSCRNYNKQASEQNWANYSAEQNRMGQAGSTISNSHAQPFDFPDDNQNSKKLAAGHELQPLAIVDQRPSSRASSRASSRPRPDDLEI
Text: FIG. 6 is an image of a polyacrylamide gel showing EDAC cross-linking of ACT-1 and Cx43-CT.
FIG. 6 is an image of a polyacrylamide gel showing EDAC cross-linking reaction of ACT-1 and connectin 43 carboxy terminal peptide. […] ACT-1 is shown by the zero order cross-linker EDAC.

U87MG glioma cells = assay: Cell aggregation assay, aggregation index (AI); format: cell-based, human; settings: 25 μM, 48 hours, serum-free
Description: UM87MG glioma cells, which express Cx43, were cultured in serum-free conditions permissive to aggregation. The cells were treated with the ACT-1 peptide for 48 hours and then imaged with phase-contrast microscopy. […] To quantitate the extent of aggregation, ImageJ software was used to collect size information about the aggregates in these images and from that information an aggregation index was calculated for each image. The AI is defined as the total area of aggregation in a field divided by the number of single, unaggregated cells in that field. So an increase in the ratio of aggregation area to unaggregated cells would increase the AI and indicate a higher propensity to aggregate.

[4] = test system: Cx-deficient C6 glioma cell line; assay: Cell aggregation assay on Cx-deficient cells; format: cell-based; settings: 1 μM and 25 μM compared
GBM cells = settings: cited from earlier work
Cx43 CT domain = Cx43 CT domain (Homo sapiens, UniProt P17302); assay: Dot blot binding of biotinylated AAP10 peptides to Cx43 CT; settings: biotinylated peptide, 500-1 ng
Sequence of Cx43 CT domain (P17302 229-382 limits assumed): as above
Text: FIG. 5 is an image showing the results of a dot blot assay for testing binding of AAP10 and AAP10-pTyr with Connexin43-carboxy terminus (CT).
By contrast, the tyrosine phosphorylated isoform biotinylated AAP10-pTyr show no affinity for Cx43 CT.

[5] = taken orally; cited from earlier work

Compound: cintredekin besudotox
adverse effects [1]: no significant adverse effects were observed

effect of binding on Cx43 CT homodimers (Cx43 CT; EDAC cross-linking): reduces Cx43 CT homodimers
interaction with the Cx43 CT (EDAC cross-linking) (Cx43 CT; zero order cross-linker EDAC): interacts with the Cx43 CT
Compound: ACT-1: SEQ ID NO:9: Antennapedia sequence RQPKIWFPNRRKPWKK linked to Cx43 c-terminal 9 amino acids RPRPDDLEI (RQPKIWFPNRRKPWKKRPRPDDLEI)
half-life in the body [2]: less than a few hours
viability of GS9-6 cells (GS9-6 cells): only mildly reduced the viability
decrease in migration [3]: 5 ×
cell migration across the Boyden chamber membrane (U87 glioma cells): significant decrease in cell migration
decrease in motility across the Boyden chamber (wild-type C6 cells): ~5 ×
self-renewal of GS9-6 cells (GS9-6 glioma stem cells): not affected
tumor volume at 53 days (LN229/GSCs): may promote tumor growth
formation of amorphous clumps (phase-contrast images) (U87MG glioma cells): tended to form amorphous clumps
aggregation index (AI) (U87MG glioma cells; Bonferroni t-test): significantly higher AIs relative to controls
aggregation versus controls [4]: no significant difference in aggregation

Compound: CC#C[C@]1(O)CC[C@H]2[C@@H]3CCC4=CC(=O)CCC4=C3[C@@H](c3ccc(N(C)C)cc3)C[C@@]21C [mifepristone]
sensitization of GBM cells to TMZ (GBM cells): sensitizes GBM cells to TMZ

affinity for the Cx43 CT domain in a dot blot (Cx43 CT domain): concentration dependent affinity
Compound: antiarrhythmic peptide 10 [AAP10]

Compound: C[C@H]1c2cccc(O)c2C(=O)C2=C(O)[C@]3(O)C(=O)C(C(N)=O)=C(O)[C@@H](N(C)C)[C@@H]3[C@@H](O)[C@@H]21 [Doxycycline]
CSF to serum ratio [5]: ~0.26
